Laboratory results from patent US6528685B2 (Teva Pharmaceutical Industries, Ltd., priority 1994, dated 2003).

What was measured:
[1] = tested on: hypoxic rat; assay: Amphetamine-induced stereotype behavior in hypoxic rat, Experiment 2A; format: in vivo; conditions: hypoxic group, with respect to hypoxia and amphetamine control
Description: Wistar male rats, 15-19 month-old, were exposed to a single hypoxic episode as described above. […] Rats pretreated for 29 days with daily doses of the test drugs (0.5 mg/kg), received a sub-cutaneous (s.c.) injection of D-amphetamine sulfate at a dose of 0.5 mg/kg. D-amphetamine is known to cause an enhancement of the effects of CNS dopamine by a mechanism involving dopamine release, and blockage of its uptake and its metabolism by MAO. The behavioral manifestation of amphetamine action is a stereotypic pattern of lateral head movements. Counts of lateral head movements were taken over two successive intervals of 1 min each, 45-60 min after the injection of amphetamine and then averaged.

[2] = tested on: hypoxia-lesioned rats; assay: Water maze working memory test, Experiment 3B; format: in vivo, rat; conditions: hypoxia-lesioned rats; 0.5 mg/kg/day 60 days; ± SEM
Description: The apparatus used consists of a circular water tank 160 cm in diameter filled with water to a depth of 38 cm. The water was made cloudy by the addition of milk powder. A clear Plexiglass 15 cm platform, supported by a movable stand rest on the bottom of the tank was submerged to a depth of 2 cm from the water surface. Normally a swimming rat cannot perceive the location of the platform but it may recall it from a previous experience and training, unless it suffers from some memory impairment. The time taken to locate the platform is measured in seconds and referred to as the latency. During the experiment all orientational cues such as ceiling lights etc. remained unchanged. Longer latencies are observed with rats with some impairment to their memory.
Each rat was given two trails a day for four days, entering the pool from the same point of entry each day. The position of the platform was changed daily to one of four predetermined positions. Each rat was tested twice each day over the four days, referred to as runs 1 and 2 on sessions I-IV. Initially the rat was placed on the platform for 60 seconds. It was then removed and placed at the point of entry and allowed a maximum of 120 seconds to locate the platform (run 1). The second run for that day followed 60 seconds later (run 2). In the second run the rat is expected to find the platform much sooner, having benefitted from its earlier experience. […] The average latency of run 1 in four sessions on four different days was then related to the corresponding parameter of run 2. The smaller the ratio of […], the better the short range learning score.
Table 8. […] The data are the latencies in seconds±SEM that it took a given group to locate a submerged and invisible platform the location of which was shifted from one session to the other. The time interval between sessions was one day, and that between successive runs was 60 seconds. (n=7-8 rats per group)

[3] = tested on: hypoxic rat; assay: α-MpT-induced hypokinesia in hypoxic rat, Experiment 1A; format: in vivo; conditions: for Locomotor activity after α-MpT treatment, recorded as total movements / Locomotor activity after αMpT treatment, recorded as big movements: hypoxic rats, 0.5 mg/kg/day by gavage 70-80 days; for Locomotor activity after αMpT treatment, recorded as big movements: Mean ± SEM
Description: (§1) Wistar male rats, 15-19 month-old, were exposed to a single hypoxic episode which is assumed to decrease the level of dopamine in the brain. […] The drugs were administered by gavage, using a special syringe equipped with rounded tip that could be directed into the stomach. The dose was contained in 0.3-0.5 mL of distilled water. The rats were pretreated for 70-80 days with daily doses of the test drugs and received intra-peritoneal (i.p.) α-MpT (α-methyl-p-tyrosine) at a dose of 100 mg/kg in 0.3-0.5 mL saline. Controls received saline. α-MpT is assumed to inhibit the formation of L-Dopa from tyrosine and, consequently the formation of dopamine itself. Lack of central dopamine is expressed as hypokinesia. Following the injection of α-MpT, motor activity was recorded for the duration of 10 hours. Locomotion scores were taken in seven fully-computerized cages (26×25 cm) having a grid of infra-red beams at 4 cm-intervals.
(§2) Crossing of a beam initiated an electric signal which was fed into a computer. The number of crossings over a given period provided a measure of locomotion.
(§3) The records gave two data categories: (a) “small movements” originating in stationary activities such as grooming and scratching and (b) “big movements” originating in ambulation and recorded as the simultaneous crossing of more than two beams. “Total movements” include both categories.
(§4) Counts of motor activity in the presence of α-MpT were related as percent with respect to counts in its absence in the corresponding control group (unlesioned or hypoxia-lesioned). Motor activity counts of drug-treated rats were related to the hypoxia saline-treated as 100%. All behavioral tests were performed 90-120 min. after administration of the last dose of the test compound.

[4] = tested on: hypoxic rat; assay: Passive avoidance test in hypoxic rat, Experiment 3A; format: in vivo; conditions: hypoxic rats
Description: Wistar male rats, 15-19 month-old, were exposed to a single hypoxic episode as described above. […] The passive avoidance test was performed on day 13 after initiation the drug treatment. The apparatus consisted of a lit chamber that can be separated from a dark chamber by a sliding door. At training, a rat is placed in the lit chamber for 30 seconds, then the door is opened. The rat moves to the dark chamber after a short delay—the latency, that is recorded. Upon entry into the dark chamber, the door is shut closed and a 0.3-mA footshock is delivered for 3 seconds by a Grass S-88 stimulator. Retention of the experience is determined after 48 hours by repeating the test and recording the latency to an arbitrary maximum of 300 seconds. Longer latencies are ascribed to retention of memory and improved cognition.

[5] = tested on: hypoxic rat; assay: α-MpT-induced hypokinesia in hypoxic rat, Experiment 1B; format: in vivo; conditions: hypoxic rats, 0.3 mg/Kg daily i.p. 21 days; for Locomotor activity after α-MpT treatment, recorded as big movements: Mean ± SEM
Description: as §1, §2, §3, §4
The procedure of Experiment 1A was repeated with the following changes:
(1) Animal: 11-14 month-old rats.
The drugs were given i.p.
(3) Duration of the treatment: 21 days.
(4) Dose of α-MpT: 70 mg/Kg.

How did the “potentiation of stereotypic behavior induced by amphetamine, in words” value [1] turn out when `C#CCN(C)[C@H](C)Cc1ccccc1` [deprenyl] was run?
Its value is “did not potentiate”.

What about the “latency to locate platform, Session I Run 1” value [2] of the same compound?
Its value is 42 ± 16 s.

And the “latency to locate platform, Session I Run 2” value [2]?
The value was 40 ± 17 s.

What about the “latency to locate platform, Session II Run 1” value [2] of the same compound?
The value was 42 ± 18 s.

And the “latency to locate platform, Session II Run 2” value [2]?
Its value is 35 ± 16 s.

And the “latency to locate platform, Session III Run 1” value [2]?
Its value is 32 ± 15 s.

And the “latency to locate platform, Session III Run 2” value [2]?
Its value is 8 ± 2 s.

And the “latency to locate platform, Session IV Run 1” value [2]?
Its value is 19 ± 6 s.

What about the “latency to locate platform, Session IV Run 2” value [2] of the same compound?
Its value is 12 ± 4 s.

And the “Locomotor activity after α-MpT treatment, recorded as total movements” value (from here on “Locomotor activity … as total movements”) ([3]; hour 1 after α-MpT)?
Its value is 88 ± 23%.

What about the “Locomotor activity after αMpT treatment, recorded as big movements” value (“Locomotor activity after αMpT treatment” below) ([3]; hour 1 after α-MpT) of the same compound?
Its value is 61 ± 15%.

And the “Locomotor activity … as total movements” value ([3]; hour 2 after α-MpT)?
The value was 131 ± 30%.

What about the “Locomotor activity after αMpT treatment” value ([3]; hour 2 after α-MpT) of the same compound?
Its value is 103 ± 22%.

What about the “Locomotor activity … as total movements” value ([3]; hour 3 after α-MpT) of the same compound?
The value was 141 ± 26%.

What about the “Locomotor activity after αMpT treatment” value ([3]; hour 3 after α-MpT) of the same compound?
Its value is 184 ± 39%.

What about the “Locomotor activity … as total movements” value ([3]; hour 4 after α-MpT) of the same compound?
The value was 191 ± 45%.

What about the “Locomotor activity after αMpT treatment” value ([3]; hour 4 after α-MpT) of the same compound?
The value was 85 ± 34%.

And the “Locomotor activity … as total movements” value ([3]; hour 5 after α-MpT)?
The value was 229 ± 40%.

And the “Locomotor activity after αMpT treatment” value ([3]; hour 5 after α-MpT)?
Its value is 171 ± 61%.

What about the “Locomotor activity after αMpT treatment” value ([3]; hour 6 after α-MpT) of the same compound?
Its value is 65 ± 17%.

And the “Locomotor activity … as total movements” value ([3]; hour 7 after α-MpT)?
Its value is 204 ± 7%.

What about the “Locomotor activity after αMpT treatment” value ([3]; hour 7 after α-MpT) of the same compound?
Its value is 96 ± 29%.

What about the “Locomotor activity … as total movements” value ([3]; hour 8 after α-MpT) of the same compound?
The value was 131 ± 23%.

And the “Locomotor activity after αMpT treatment” value ([3]; hour 8 after α-MpT)?
The value was 91 ± 40%.

What about the “Locomotor activity … as total movements” value ([3]; hour 9 after α-MpT) of the same compound?
The value was 137 ± 21%.

And the “Locomotor activity after αMpT treatment” value ([3]; hour 9 after α-MpT)?
The value was 84 ± 23%.

And the “Locomotor activity … as total movements” value ([3]; hour 10 after α-MpT)?
The value was 116 ± 22%.

What about the “Locomotor activity after αMpT treatment” value ([3]; hour 10 after α-MpT) of the same compound?
The value was 29 ± 10%.

And the “effect on hypokinetic syndrome, big movements, in words” value ([3]; hypoxia group, ten hour observation)?
Its value is “less effective”.

And the “level of activity (total movements) versus corresponding control group, in words” value ([3]; hypoxic rats pretreated)?
The value was “much higher”.

What about the “passive avoidance performance, in words” value [4] of the same compound?
The value was “showed no improvement”.

What about the “Locomotor activity … as total movements” value ([5]; hour 1 after α-MpT 70 mg/Kg) of the same compound?
The value was 68 ± 9%.

And the “Locomotor activity after α-MpT treatment, recorded as big movements” value ([5]; hour 1 after α-MpT 70 mg/Kg)?
The value was 70 ± 10%.

What about the “Locomotor activity … as total movements” value ([5]; hour 2 after α-MpT 70 mg/Kg) of the same compound?
The value was 95 ± 11%.

And the “Locomotor activity after α-MpT treatment, recorded as big movements” value ([5]; hour 2 after α-MpT 70 mg/Kg)?
The value was 91 ± 19%.

And the “Locomotor activity … as total movements” value ([5]; hour 3 after α-MpT 70 mg/Kg)?
Its value is 126 ± 22%.

What about the “Locomotor activity after α-MpT treatment, recorded as big movements” value ([5]; hour 3 after α-MpT 70 mg/Kg) of the same compound?
The value was 85 ± 19%.

What about the “Locomotor activity … as total movements” value ([5]; hour 4 after α-MpT 70 mg/Kg) of the same compound?
Its value is 118 ± 20%.

And the “Locomotor activity after α-MpT treatment, recorded as big movements” value ([5]; hour 4 after α-MpT 70 mg/Kg)?
The value was 88 ± 23%.

And the “Locomotor activity … as total movements” value ([5]; hour 5 after α-MpT 70 mg/Kg)?
Its value is 83 ± 24%.

And the “Locomotor activity after α-MpT treatment, recorded as big movements” value ([5]; hour 5 after α-MpT 70 mg/Kg)?
Its value is 87 ± 11%.

What about the “Locomotor activity … as total movements” value ([5]; hour 6 after α-MpT 70 mg/Kg) of the same compound?
The value was 78 ± 9%.

What about the “Locomotor activity after α-MpT treatment, recorded as big movements” value ([5]; hour 6 after α-MpT 70 mg/Kg) of the same compound?
The value was 67 ± 8%.

What about the “Locomotor activity … as total movements” value ([5]; hour 7 after α-MpT 70 mg/Kg) of the same compound?
Its value is 56 ± 7%.

What about the “Locomotor activity after α-MpT treatment, recorded as big movements” value ([5]; hour 7 after α-MpT 70 mg/Kg) of the same compound?
Its value is 62 ± 9%.

And the “Locomotor activity … as total movements” value ([5]; hour 8 after α-MpT 70 mg/Kg)?
The value was 185 ± 13%.

And the “Locomotor activity after α-MpT treatment, recorded as big movements” value ([5]; hour 8 after α-MpT 70 mg/Kg)?
Its value is 70 ± 9%.

And the “Locomotor activity … as total movements” value ([5]; hour 9 after α-MpT 70 mg/Kg)?
The value was 111 ± 12%.

And the “Locomotor activity after α-MpT treatment, recorded as big movements” value ([5]; hour 9 after α-MpT 70 mg/Kg)?
The value was 132 ± 24%.

What about the “Locomotor activity … as total movements” value ([5]; hour 10 after α-MpT 70 mg/Kg) of the same compound?
The value was 61 ± 12%.

What about the “Locomotor activity after α-MpT treatment, recorded as big movements” value ([5]; hour 10 after α-MpT 70 mg/Kg) of the same compound?
The value was 54 ± 13%.
